# Data taken from publication PMC5118987 (Antimicrobial Agents and Chemotherapy, 2016).
# Like-named read-outs stand apart in the source and are kept apart here.
# Legend:
# HIV-1 BaL = settings: primary CD4+ T-cells, 35 days, drug at tissue culture equivalent clinical Cmin (FTC 160 × EC50)
# [1] = system: INSTI-resistant HIV-1 mutants (HXB2); experiment: microbe, parasite or virus in culture; type: cell-based
# HIV-1 clonal variants = experiment: PhenoSense integrase assay, clonal variants from EVG/COBI/FTC/TDF virologic failures; type: cell-based
# Description: Clonal Analysis of HIV-1 from Patients. Plasma from 16 patients treated in Studies GS-US-236-0102 and GS-US-236-0103 with confirmed virologic failure and resistance development in the HIV-1 integrase gene were sent to Monogram Biosciences (South San Francisco, CA) for clonal analysis. The HIV-1 RNA was isolated and the cDNA was synthesized using Monogram proprietary primers. Using proprietary primers, PCR amplification of the entire protease, reverse transcriptase, and integrase coding regions of the pol gene were performed. PCR products were inserted into T/A cloning vectors.
# Approximately 20 clones were chosen per patient sample for sequencing using proprietary primers. A subset of clones was chosen for phenotypic analysis based on the presence of INSTI resistance mutations. Resistance test vectors containing the patient-derived integrase coding region from selected clones were constructed using standard Monogram Biosciences protocols. […]
# values) in these clones were obtained through a contract study by Monogram Biosciences using the PhenoSense integrase assay. The fold-change from the NL4-3 wild-type reference vector values was determined.
# [2] = system: inhibitor-selected HIV-1 IIIb passages; experiment: Phenotypic profile of selected HIV-1 passages; type: cell-based; settings: for EC50: Human immunodeficiency virus 1, IIIB
smiles,measurement,setting,value
"Cc1nnc(C(=O)NC(C)(C)c2nc(C(=O)NCc3ccc(F)cc3)c(O)c(=O)n2C)o1 [RAL, raltegravir]",Frequency of Viral Breakthrough with RAMs,HIV-1 BaL,58%
same,p24+ Wells,HIV-1 BaL,12/12
same,EC50,"[1]; Human immunodeficiency virus 1, HXB2, IN mutant E92Q",38 ± 9 nM
same,EC50,"[1]; Human immunodeficiency virus 1, HXB2, IN mutant E92Q/N155H",624 ± 213 nM
same,EC50,"[1]; Human immunodeficiency virus 1, HXB2, IN mutant E138K/Q148K",1530 nM
same,EC50,"[1]; Human immunodeficiency virus 1, HXB2, IN mutant G140S/Q148R",2460 nM
same,EC50,"[1]; Human immunodeficiency virus 1, HXB2, IN mutant M50I (BIC/DTG selection)",7.4 ± 1.7 nM
same,EC50,"[1]; Human immunodeficiency virus 1, HXB2, IN mutant M50I/R263K (BIC selection)",7.7 ± 2.1 nM
same,EC50,"[1]; Human immunodeficiency virus 1, HXB2, IN mutant M50I/S119R/R263K (DTG selection)",19 ± 7 nM
same,EC50,"[1]; Human immunodeficiency virus 1, HXB2, IN mutant N155H",188 ± 37 nM
same,EC50,"[1]; Human immunodeficiency virus 1, HXB2, IN mutant N155H/Q148R",2180 nM
same,EC50,"[1]; Human immunodeficiency virus 1, HXB2, IN mutant Q148R",427 ± 52 nM
same,EC50,"[1]; Human immunodeficiency virus 1, HXB2, IN mutant R263K (BIC/DTG selection), Table 7",7.7 ± 1.2 nM
same,EC50,"[1]; Human immunodeficiency virus 1, HXB2, IN mutant R263K, Table 6",10.4 ± 1.4 nM
same,EC50,"[1]; Human immunodeficiency virus 1, HXB2, IN mutant S119R (DTG selection)",15 ± 5 nM
same,EC50,"[1]; Human immunodeficiency virus 1, HXB2, IN mutant S119R/R263K (DTG selection)",12 ± 2 nM
same,EC50,"[1]; Human immunodeficiency virus 1, HXB2, IN mutant S153Y (DTG selection)",15 ± 4 nM
same,EC50,"[1]; Human immunodeficiency virus 1, HXB2, IN mutant S153Y/R263K (DTG selection)",22 ± 2 nM
same,EC50,"[1]; Human immunodeficiency virus 1, HXB2, IN mutant Y143R",418 ± 151 nM
same,EC50,"[1]; Human immunodeficiency virus 1, HXB2, WT (HXB2), Table 6, read-out: EC50",9.4 ± 1.4 nM
same,EC50,"[1]; Human immunodeficiency virus 1, HXB2, WT (HXB2), Table 7, read-out: EC50",7.1 ± 1.1 nM
same,cross-resistance of BIC-selected variants,[1]; all BIC-selected variants,< 8 fold
same,Susceptibility (Fold-change vs. WT),HIV-1 clonal variants; clone 6041-11: E92Q,3.67 fold-change
same,Susceptibility (Fold-change vs. WT),HIV-1 clonal variants; clone 6101-12: Q148R,32 fold-change
same,Susceptibility (Fold-change vs. WT),HIV-1 clonal variants; clone 6101-14: N155H,6.56 fold-change
same,Susceptibility (Fold-change vs. WT),HIV-1 clonal variants; clone 6101-15: E92Q,4.41 fold-change
same,Susceptibility (Fold-change vs. WT),"HIV-1 clonal variants; clone 6322-1: N155H, G163R",15 fold-change
same,Susceptibility (Fold-change vs. WT),HIV-1 clonal variants; clone 6322-11: N155H,11 fold-change
same,Susceptibility (Fold-change vs. WT),HIV-1 clonal variants; clone 6503-10: E92Q,3.88 fold-change
same,Susceptibility (Fold-change vs. WT),HIV-1 clonal variants; clone 6545-7: N155H,15 fold-change
same,Susceptibility (Fold-change vs. WT),HIV-1 clonal variants; clone 6648-7: E92Q,4.20 fold-change
same,Susceptibility (Fold-change vs. WT),HIV-1 clonal variants; clone 6648-10: E92Q,4.20 fold-change
same,Susceptibility (Fold-change vs. WT),HIV-1 clonal variants; clone 6648-11: E92Q,3.97 fold-change
same,Susceptibility (Fold-change vs. WT),HIV-1 clonal variants; clone 6667-1: E92Q,5.09 fold-change
same,Susceptibility (Fold-change vs. WT),"HIV-1 clonal variants; clone 7299-11: Q148R, G140C",24 fold-change
same,Susceptibility (Fold-change vs. WT),HIV-1 clonal variants; clone 7332-10: None,0.79 fold-change
same,Susceptibility (Fold-change vs. WT),HIV-1 clonal variants; clone 7425-11: E92Q,1.95 fold-change
same,Susceptibility (Fold-change vs. WT),"HIV-1 clonal variants; clone 7476-5: T66I, E157Q",1.63 fold-change
same,Susceptibility (Fold-change vs. WT),"HIV-1 clonal variants; clone 7476-9: T66I, T97A, E157Q",2.45 fold-change
same,Susceptibility (Fold-change vs. WT),HIV-1 clonal variants; clone 7562-12: N155H,13 fold-change
same,Fold-Resistance Relative to HIV-1 IIIb,[2]; HIV-1-IIIb (reference),1 fold
same,EC50,"[2]; 480 h, selected virus EVG P2 (day 20, 7.2 nM)",25.9 nM
same,EC50,[2]; HIV-1-IIIb (unselected),8.8 nM
same,EC50,"[2]; selected virus BIC P3 (day 47, 6 nM)",18.1 nM
same,EC50,"[2]; selected virus BIC P5 (day 71, 12 nM)",18.3 nM
same,EC50,"[2]; selected virus BIC P6 (day 86, 24 nM)",24.4 nM
same,EC50,"[2]; selected virus BIC P8 (day 156, 96 nM)",28.8 nM
same,EC50,"[2]; selected virus BIC P9 (day 181, 192 nM)",41.7 nM
same,EC50,"[2]; selected virus BIC P10 (day 234, 384 nM)",29.3 nM
same,EC50,"[2]; selected virus DTG P3Lo (day 59, 6.4 nM)",11.8 nM
same,EC50,"[2]; selected virus DTG P4 (day 87, 9.6 nM)",23.2 nM
same,EC50,"[2]; selected virus DTG P5 (day 97, 14.4 nM)",28 nM
same,EC50,"[2]; selected virus DTG P7 (day 139, 32.4 nM)",39.7 nM
same,EC50,"[2]; selected virus DTG P9 (day 174, 72.9 nM)",43 nM
same,EC50,"[2]; selected virus DTG P10 (day 202, 109.4 nM)",56.9 nM
same,EC50,"[2]; selected virus EVG P4 (day 41, 28.8 nM)",26.9 nM
same,EC50,"[2]; selected virus EVG P6 (day 56, 115 nM)",19.9 nM
same,EC50,"[2]; selected virus EVG P7 (day 67, 230 nM)",28.7 nM
same,EC50,"[2]; selected virus EVG P9 (day 94, 922 nM)",44.9 nM
same,EC50,"[2]; selected virus EVG P10 (day 119, 1843 nM)",17 nM
same,Fold-Resistance Relative to HIV-1 IIIb,[2]; selected virus BIC P3,2 fold
same,Fold-Resistance Relative to HIV-1 IIIb,[2]; selected virus BIC P5,2.1 fold
same,Fold-Resistance Relative to HIV-1 IIIb,[2]; selected virus BIC P6,2.8 fold
same,Fold-Resistance Relative to HIV-1 IIIb,[2]; selected virus BIC P8,3.3 fold
same,Fold-Resistance Relative to HIV-1 IIIb,[2]; selected virus BIC P9,4.7 fold
same,Fold-Resistance Relative to HIV-1 IIIb,[2]; selected virus BIC P10,3.3 fold
same,Fold-Resistance Relative to HIV-1 IIIb,[2]; selected virus DTG P3Lo,1.3 fold
same,Fold-Resistance Relative to HIV-1 IIIb,[2]; selected virus DTG P4,2.6 fold
same,Fold-Resistance Relative to HIV-1 IIIb,[2]; selected virus DTG P5,3.2 fold
same,Fold-Resistance Relative to HIV-1 IIIb,[2]; selected virus DTG P7,4.5 fold
same,Fold-Resistance Relative to HIV-1 IIIb,[2]; selected virus DTG P9,4.9 fold
same,Fold-Resistance Relative to HIV-1 IIIb,[2]; selected virus DTG P10,6.4 fold
same,Fold-Resistance Relative to HIV-1 IIIb,[2]; selected virus EVG P2,2.9 fold
same,Fold-Resistance Relative to HIV-1 IIIb,[2]; selected virus EVG P4,3.0 fold
same,Fold-Resistance Relative to HIV-1 IIIb,[2]; selected virus EVG P6,2.3 fold
same,Fold-Resistance Relative to HIV-1 IIIb,[2]; selected virus EVG P7,3.3 fold
same,Fold-Resistance Relative to HIV-1 IIIb,[2]; selected virus EVG P9,5.1 fold
same,Fold-Resistance Relative to HIV-1 IIIb,[2]; selected virus EVG P10,1.9 fold
